“And” between values parts separate entries of the source, which are not always exact repeats. Identical values can stand only once. Each block holds one compound with its values, some of them ahead of it.
Tested on: 922993-354-T-J3-PDC complex spheroids, viability, % test/control
Assay: Anticancer human tumor 922993-354-T-J3-PDC patient-derived endometrial carcinoma cell line growth inhibition [CLK]
Details: for viability, T/C: stronger effect = lower value
Excerpt: A high-throughput screen of multi-cell type tumor spheroids was designed to identify active combinations of […] and targeted small molecules. Complex spheroids include a stromal component modeled by human endothelial cells (HUVEC) and fibroblasts modeled by human mesenchymal stem cells (MSCs). The concentration ranges selected for each drug and investigational agent were based upon clinically achievable concentrations if the clinical Cmax of the agent was known.
Compounds. The drugs and investigational agents: cirtuvivint (SM08502; NSC835563), CC-671 (NSC850746), vemurafenib (NSC761431), tapotoclax (NSC804041), sotorasib (NSC818433), adagrasib (NSC831453), MRTX-1133 (NSC836407), BAY2416964 (NSC825713), copanlisib (NSC816437), inavolisib (NSC800729), abemaciclib (NSC768073), osimertinib (NSC779217), entinostat (NSC756642), eltanexor (KPT-8602, NSC794443), venetoclax (NSC766270), ceralasertib (NSC777638), bortezomib (NSC756655), olaparib (NSC753686), talazoparib (NSC767125), alisertib (NSC759677), peposertib (NSC802822), gemcitabine (NSC613327), 5-fluorouracil (NSC19893), SN-38 (NSC673596), oxaliplatin (NSC266046), paclitaxel (NSC125973), and doxorubicin (NSC123127), were obtained from the National Cancer Institute (NCI) Developmental Therapeutics Program Chemical Repository. The FDA-approved anticancer drug set is available from the Developmental Therapeutics Program at https://dtp.cancer.gov/organization/dscb/obtaining/available plates.htm. […] The stock solutions were prepared in dimethyl sulfoxide (DMSO, Sigma-Aldrich, St. Louis, MO, cat. D2650), except for the platinum complexes which were prepared in saline (Quality Biological, Gaithersburg, MD, cat. 114-055-101), at 800-fold the tested concentration and stored at -70 degrees C prior to their use. All drugs and investigational agents were tested over a range starting from a high concentration at or near the clinical Cmax and decreasing in half-log increments. If the clinical Cmax for an agent had not been determined, the highest concentration tested was 10 microM.
Cell Culture. All cells were maintained in an incubator at 37 degrees C and 5% CO2 with 95% humidity. The PDC lines were cultured according to standard operating procedures established by the NCI PDMR. Briefly, all PDCs were thawed and cultured in Matrigel-coated flasks prepared with a working solution of 1X Ham's F-12 nutrient mix, without supplementation (Invitrogen, Waltham, MA, cat. 11765054), 100 U/mL penicillin-streptomycin (Invitrogen, cat. 15140122), and 2.5% Matrigel (Corning Inc., Corning, NY, cat. 354248) for the first three passages. The 947758-054-R-J2-PDC line was cultured in 6B/Colon 1A media, which includes advanced DMEM/F-12 (Thermo Fisher Scientific, cat. 12634028), 10 mM HEPES (Thermo Fisher Scientific, cat. 15630080), 1X GlutaMAX supplement (Thermo Fisher Scientific, cat. 35050061), 0.1 mg/mL primocin (InvivoGen, cat. ant-pm-2), 10% defined fetal bovine serum, heat inactivated (HyClone Laboratories Inc., cat. SH30070.03HI), 1.25 mM N-Acetyl-L-cysteine (Sigma-Aldrich, cat. A9165), 10 mM nicotinamide (Sigma-Aldrich, cat. N0636), 1X B-27 supplement (Thermo Fisher Scientific, cat. 17504044), 1X N-2 supplement (Thermo Fisher Scientific, cat. 17502048), and 10 microM Y-27632 dihydrochloride (Tocris Bioscience, cat. 1254). The 876862-298-R-J1-PDC was cultured in 6E media, which includes all 6B/Colon 1A media components plus 50% L-WRN conditioned media (ATCC, cat. CRL-3276), 50 ng/mL recombinant human EGF recombinant protein (hEGF; Thermo Fisher Scientific, cat. PHG0311), 10 ng/mL recombinant human fibroblast growth factor 10 (hGFG-10; PeproTech, cat. 100-26), 1 ng/mL recombinant human fibroblast growth factor 2 (hFGF-2; PeproTech, cat. 100-18B), and 1 µM prostaglandin E2 (PGE2; Tocris, cat. 2296). The 227483-062-R1-J1-PDC line was cultured in Panc media, containing all 6E components except hFGF-2, with the addition of 500 nM SB-431542 (Selleckchem, cat. S1067) and 10 nM gastrin (Tocris, cat. 3006). […]

[1] = curve of first compound, second compound 0.0316 µM
[2] = curve of first compound, second compound 0.1 µM
[3] = curve of first compound, second compound 0.316 µM
[4] = curve of first compound, second compound 1 µM
[5] = curve of first compound, second compound 3.16 µM
[6] = curve of first compound, second compound 10 µM
[7] = second compound 0.0316 µM, first compound 0.0316 µM
[8] = second compound 0.0316 µM, first compound 0.1 µM
[9] = second compound 0.0316 µM, first compound 0.316 µM
[10] = second compound 0.0316 µM, first compound 1 µM
[11] = second compound 0.1 µM, first compound 0.0316 µM
[12] = second compound 0.1 µM, first compound 0.1 µM
[13] = second compound 0.1 µM, first compound 0.316 µM
[14] = second compound 0.1 µM, first compound 1 µM
[15] = second compound 0.316 µM, first compound 0.0316 µM
[16] = second compound 0.316 µM, first compound 0.1 µM
[17] = second compound 0.316 µM, first compound 0.316 µM
[18] = second compound 0.316 µM, first compound 1 µM
[19] = second compound 1 µM, first compound 0.0316 µM
[20] = second compound 1 µM, first compound 0.1 µM
[21] = second compound 1 µM, first compound 0.316 µM
[22] = second compound 1 µM, first compound 1 µM
[23] = second compound 3.16 µM, first compound 0.0316 µM
[24] = second compound 3.16 µM, first compound 0.1 µM
[25] = second compound 3.16 µM, first compound 0.316 µM
[26] = second compound 3.16 µM, first compound 1 µM
[27] = second compound 10 µM, first compound 0.0316 µM
[28] = second compound 10 µM, first compound 0.1 µM
[29] = second compound 10 µM, first compound 0.316 µM
[30] = second compound 10 µM, first compound 1 µM
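Further: spheroids exposed to the agents for 7 days before readout.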

SMILES: CCCS(=O)(=O)Nc1ccc(F)c(C(=O)c2c[nH]c3ncc(-c4ccc(Cl)cc4)cc23)c1F
viability, T/C (compound 0.0316 µM): 113% and 92.8%
viability, T/C (compound 0.1 µM): 79.7% and 76.8%
viability, T/C (compound 0.316 µM): 97.7% and 113%
viability, T/C (compound 1 µM): 111% and 94.1%
viability, T/C (compound 3.16 µM): 65.2% and 95.7%
viability, T/C (compound 10 µM): 59% and 65.5%
IC50 (curve of compound): > 10000 nM

SMILES: CCN1CCN(Cc2ccc(Nc3ncc(F)c(-c4cc(F)c5nc(C)n(C(C)C)c5c4)n3)nc2)CC1 + CN1CCN(c2cc(C(=O)Nc3cc4cc(-c5cnn(C)c5)ccc4cn3)ccn2)CC1
IC50 [1]: > 1000 nM
IC50 [2]: > 1000 nM
IC50 [3]: < 3.16 nM
IC50 [4]: < 3.16 nM
IC50 [5]: < 3.16 nM
IC50 [6]: < 3.16 nM
viability, T/C (second compound 0.0316 µM, first compound 0.00316 µM): 106%
viability, T/C (second compound 0.0316 µM, first compound 0.01 µM): 110%
viability, T/C [7]: 87.4%
viability, T/C [8]: 83.3%
viability, T/C [9]: 58.9%
viability, T/C [10]: 57.3%
viability, T/C (second compound 0.1 µM, first compound 0.00316 µM): 88.1%
viability, T/C (second compound 0.1 µM, first compound 0.01 µM): 91.8%
viability, T/C [11]: 75.8%
viability, T/C [12]: 66.4%
viability, T/C [13]: 58.8%
viability, T/C [14]: 60.5%
viability, T/C (second compound 0.316 µM, first compound 0.00316 µM): 46.5%
viability, T/C (second compound 0.316 µM, first compound 0.01 µM): 37%
viability, T/C [15]: 34.4%
viability, T/C [16]: 37%
viability, T/C [17]: 36.4%
viability, T/C [18]: 38.6%
viability, T/C (second compound 1 µM, first compound 0.00316 µM): 0.13%
viability, T/C (second compound 1 µM, first compound 0.01 µM): 0.79%
viability, T/C [19]: 0.77%
viability, T/C [20]: 0.13%
viability, T/C [21]: 1.01%
viability, T/C [22]: 0.64%
viability, T/C (second compound 3.16 µM, first compound 0.00316 µM): 0.1%
viability, T/C (second compound 3.16 µM, first compound 0.01 µM): 1.24%
viability, T/C [23]: 0.11%
viability, T/C [24]: 0.13%
viability, T/C [25]: 0.16%
viability, T/C [26]: 0.84%
viability, T/C (second compound 10 µM, first compound 0.00316 µM): 0.13%
viability, T/C (second compound 10 µM, first compound 0.01 µM): 0.16%
viability, T/C [27]: 1.7%
viability, T/C [28]: 0.15%
viability, T/C [29]: 2.3%
viability, T/C [30]: 2.5%

SMILES: COc1ccc([C@@H](O)c2cc(-c3ncnc4cc(N5CCOCC5)ccc34)c(F)cc2Cl)nn1
viability, T/C (compound 0.0316 µM): 87.2% and 87.1%
viability, T/C (compound 0.1 µM): 104% and 94.9%
viability, T/C (compound 0.316 µM): 87.7% and 98.9%
viability, T/C (compound 1 µM): 113% and 98.2%
viability, T/C (compound 3.16 µM): 85.8% and 117%
viability, T/C (compound 10 µM): 82.8% and 89.9%
IC50 (curve of compound): > 10000 nM

Second part, led by results:

IC50 (curve of compound): < 31.6 nM
SMILES: Nc1ccn(C2OC(CO)C(O)C2(F)F)c(=O)n1 (stereo not given)
viability, T/C (compound 0.0316 µM): 15.9% and 15.4%
viability, T/C (compound 0.1 µM): 17.1% and 18.3%
viability, T/C (compound 0.316 µM): 15.5% and 15.6%
viability, T/C (compound 1 µM): 15.6% and 16.5%
viability, T/C (compound 3.16 µM): 15.1% and 13.7%
viability, T/C (compound 10 µM): 13.5% and 14.2%

IC50 [1]: 6370 nM
IC50 [2]: 6790 nM
IC50 [3]: 2250 nM
IC50 [4]: < 31.6 nM
IC50 [5]: < 31.6 nM
IC50 [6]: < 31.6 nM
SMILES: COC1C=CCC(C)C(C)S(=O)(=O)NC(=O)c2ccc3c(c2)N(CC2CCC21)CC1(CCCc2cc(Cl)ccc21)CO3 (stereo not given) + CNC(=O)c1ccc(Nc2nc(OC3CCCC3)c3c(-c4ccc5nc(C)oc5c4)c[nH]c3n2)c(OC)c1
viability, T/C [7]: 111%
viability, T/C [8]: 117%
viability, T/C [9]: 104%
viability, T/C [10]: 98.9%
viability, T/C (second compound 0.0316 µM, first compound 3.16 µM): 90.4%
viability, T/C (second compound 0.0316 µM, first compound 10 µM): 25.6%
viability, T/C [11]: 114%
viability, T/C [12]: 99.6%
viability, T/C [13]: 107%
viability, T/C [14]: 105%
viability, T/C (second compound 0.1 µM, first compound 3.16 µM): 103%
viability, T/C (second compound 0.1 µM, first compound 10 µM): 23%
viability, T/C [15]: 64.6%
viability, T/C [16]: 70.2%
viability, T/C [17]: 66.1%
viability, T/C [18]: 57%
viability, T/C (second compound 0.316 µM, first compound 3.16 µM): 47.5%
viability, T/C (second compound 0.316 µM, first compound 10 µM): 17.9%
viability, T/C [19]: 33.7%
viability, T/C [20]: 39%
viability, T/C [21]: 32.1%
viability, T/C [22]: 27.7%
viability, T/C (second compound 1 µM, first compound 3.16 µM): 21.2%
viability, T/C (second compound 1 µM, first compound 10 µM): 11%
viability, T/C [23]: 27.3%
viability, T/C [24]: 30.2%
viability, T/C [25]: 25.7%
viability, T/C [26]: 20.8%
viability, T/C (second compound 3.16 µM, first compound 3.16 µM): 16.5%
viability, T/C (second compound 3.16 µM, first compound 10 µM): 9.29%
viability, T/C [27]: 29.8%
viability, T/C [28]: 25.2%
viability, T/C [29]: 23.3%
viability, T/C [30]: 17.3%
viability, T/C (second compound 10 µM, first compound 3.16 µM): 13.4%
viability, T/C (second compound 10 µM, first compound 10 µM): 10.7%
